Source: patent publication US20110294778A1, “HEPATITIS C INHIBITOR COMPOUNDS” (priority 2009, published 2011)

Assays:
[1] = test system: HCV genotype 1b (Con-1) subgenomic replicon with NS3 resistance mutation D168V in Huh-7 cells; assay: HCV replicon RNA replication assay (NS3 protease variants), genotype 1b D168V; assay type: cell-based; conditions: Hepatitis C virus, Huh-7, 72 h, read-out: D168V 1b EC50 (nM)
[2] = test system: HCV genotype 1a (strain H77) subgenomic replicon with NS3 resistance mutation R155K in Huh-7 cells; assay: HCV replicon RNA replication assay (NS3 protease variants), genotype 1a R155K; assay type: cell-based; conditions: Hepatitis C virus, Huh-7, 72 h, read-out: R155K 1a EC50 (nM)

Structure (SMILES): COc1ccc2c(O[C@@H]3C[C@H]4C(=O)N[C@]5(C(=O)NS(=O)(=O)C6(C)CC6)C[C@H]5/C=C\CCCCC[C@H](NC(=O)N5CC(OC)C5)C(=O)N4C3)cc(OC(C)C)nc2c1C [Compound 2003, (2R,6S,12Z,13aS,14aR,16aS)-6-{[(3-methoxyazetidin-1-yl)carbonyl]amino}-2-{[7-methoxy-8-methyl-2-(propan-2-yloxy)quinolin-4-yl]oxy}-N-[(1-methylcyclopropyl)sulfonyl]-5,16-dioxo-1,2,3,6,7,8,9,10,11,13a,14,15,16,16a-tetradecahydrocyclopropa[e]pyrrolo[1,2-a][1,4]diazacyclopentadecine-14a(5H)-carboxamide]
- EC50 [1]: 0.47 nM
- EC50 [2]: 9.1 nM

Structure (SMILES): COc1ccc2c(O[C@@H]3C[C@H]4C(=O)N[C@]5(C(=O)NS(=O)(=O)C6(C)CC6)C[C@H]5/C=C\CCCCC[C@H](NC(=O)N5CC(C)(O)C5)C(=O)N4C3)cc(OC(C)C)nc2c1C [Compound 2013, (2R,6S,12Z,13aS,14aR,16aS)-6-{[(3-hydroxy-3-methylazetidin-1-yl)carbonyl]amino}-2-{[7-methoxy-8-methyl-2-(propan-2-yloxy)quinolin-4-yl]oxy}-N-[(1-methylcyclopropyl)sulfonyl]-5,16-dioxo-1,2,3,6,7,8,9,10,11,13a,14,15,16,16a-tetradecahydrocyclopropa[e]pyrrolo[1,2-a][1,4]diazacyclopentadecine-14a(5H)-carboxamide]
- EC50 [1]: 3.3 nM
- EC50 [2]: 6.5 nM

Structure (SMILES): CCn1ccc(C(=O)N[C@H]2CCCCC/C=C\[C@@H]3C[C@@]3(C(=O)NS(=O)(=O)C3CC3)NC(=O)[C@@H]3C[C@@H](Oc4cc(OC(C)C)nc5c(C)c(OC)ccc45)CN3C2=O)n1 [Compound 1024, (2R,6S,12Z,13aS,14aR,16aS)-N-(cyclopropylsulfonyl)-6-{[(1-ethyl-1H-pyrazol-3-yl)carbonyl]amino}-2-{[7-methoxy-8-methyl-2-(propan-2-yloxy)quinolin-4-yl]oxy}-5,16-dioxo-1,2,3,6,7,8,9,10,11,13a,14,15,16,16a-tetradecahydrocyclopropa[e]pyrrolo[1,2-a][1,4]diazacyclopentadecine-14a(5H)-carboxamide]
- EC50 [1]: 0.31 nM
- EC50 [2]: 3.9 nM

Structure (SMILES): COc1ccc2c(O[C@@H]3C[C@H]4C(=O)N[C@]5(C(=O)NS(=O)(=O)C6CC6)C[C@H]5/C=C\CCCCC[C@H](NC(=O)c5ccn(C(F)F)n5)C(=O)N4C3)cc(OC(C)C)nc2c1C [Compound 1027, (2R,6S,12Z,13aS,14aR,16aS)-N-(cyclopropylsulfonyl)-6-({[1-(difluoromethyl)-1H-pyrazol-3-yl]carbonyl}amino)-2-{[7-methoxy-8-methyl-2-(propan-2-yloxy)quinolin-4-yl]oxy}-5,16-dioxo-1,2,3,6,7,8,9,10,11,13a,14,15,16,16a-tetradecahydrocyclopropa[e]pyrrolo[1,2-a][1,4]diazacyclopentadecine-14a(5H)-carboxamide]
- EC50 [1]: 0.35 nM
- EC50 [2]: 8.4 nM

Structure (SMILES): COc1ccc2c(O[C@@H]3C[C@H]4C(=O)N[C@]5(C(=O)NS(=O)(=O)C6(C)CC6)C[C@H]5/C=C\CCCCC[C@H](NC(=O)c5ccn(C(F)F)n5)C(=O)N4C3)cc(OC(C)C)nc2c1C [Compound 1018, (2R,6S,12Z,13aS,14aR,16aS)-6-({[1-(difluoromethyl)-1H-pyrazol-3-yl]carbonyl}amino)-2-{[7-methoxy-8-methyl-2-(propan-2-yloxy)quinolin-4-yl]oxy}-N-[(1-methylcyclopropyl)sulfonyl]-5,16-dioxo-1,2,3,6,7,8,9,10,11,13a,14,15,16,16a-tetradecahydrocyclopropa[e]pyrrolo[1,2-a][1,4]diazacyclopentadecine-14a(5H)-carboxamide]
- EC50 [1]: 0.14 nM
- EC50 [2]: 2.4 nM

Structure (SMILES): COc1ccc2c(O[C@@H]3C[C@H]4C(=O)N[C@]5(C(=O)NS(=O)(=O)C6(C)CC6)C[C@H]5/C=C\CCCCC[C@H](NC(=O)c5cc(C)n(C)n5)C(=O)N4C3)cc(OC(C)C)nc2c1C [Compound 1026, (2R,6S,12Z,13aS,14aR,16aS)-6-{[(1,5-dimethyl-1H-pyrazol-3-yl)carbonyl]amino}-2-{[7-methoxy-8-methyl-2-(propan-2-yloxy)quinolin-4-yl]oxy}-N-[(1-methylcyclopropyl)sulfonyl]-5,16-dioxo-1,2,3,6,7,8,9,10,11,13a,14,15,16,16a-tetradecahydrocyclopropa[e]pyrrolo[1,2-a][1,4]diazacyclopentadecine-14a(5H)-carboxamide]
- EC50 [1]: 0.32 nM
- EC50 [2]: 3.3 nM

Structure (SMILES): COc1ccc2c(O[C@@H]3C[C@H]4C(=O)N[C@]5(C(=O)NS(=O)(=O)C6(C)CC6)C[C@H]5/C=C\CCCCC[C@H](NC(=O)c5ccc(C)s5)C(=O)N4C3)cc(OC(C)C)nc2c1C [Compound 1004, (2R,6S,12Z,13aS,14aR,16aS)-2-{[7-methoxy-8-methyl-2-(propan-2-yloxy)quinolin-4-yl]oxy}-N-[(1-methylcyclopropyl)sulfonyl]-6-{[(5-methylthiophen-2-yl)carbonyl]amino}-5,16-dioxo-1,2,3,6,7,8,9,10,11,13a,14,15,16,16a-tetradecahydrocyclopropa[e]pyrrolo[1,2-a][1,4]diazacyclopentadecine-14a(5H)-carboxamide]
- EC50 [1]: 0.22 nM
- EC50 [2]: 2.8 nM

Structure (SMILES): COc1ccc2c(O[C@@H]3C[C@H]4C(=O)N[C@]5(C(=O)NS(=O)(=O)C6(C)CC6)C[C@H]5/C=C\CCCCC[C@H](NC(=O)N5CCC5)C(=O)N4C3)cc(OC(C)C)nc2c1C [Compound 2001, (2R,6S,12Z,13aS,14aR,16aS)-6-[(azetidin-1-ylcarbonyl)amino]-2-{[7-methoxy-8-methyl-2-(propan-2-yloxy)quinolin-4-yl]oxy}-N-[(1-methylcyclopropyl)sulfonyl]-5,16-dioxo-1,2,3,6,7,8,9,10,11,13a,14,15,16,16a-tetradecahydrocyclopropa[e]pyrrolo[1,2-a][1,4]diazacyclopentadecine-14a(5H)-carboxamide]
- EC50 [1]: 0.48 nM
- EC50 [2]: 2.3 nM

Structure (SMILES): COc1ccc2c(O[C@@H]3C[C@H]4C(=O)N[C@]5(C(=O)NS(=O)(=O)C6(C)CC6)C[C@H]5/C=C\CCCCC[C@H](NC(=O)N5CC(C)(C)C5)C(=O)N4C3)cc(OC(C)C)nc2c1C [Compound 2021, (2R,6S,12Z,13aS,14aR,16aS)-6-{[(3,3-dimethylazetidin-1-yl)carbonyl]amino}-2-{[7-methoxy-8-methyl-2-(propan-2-yloxy)quinolin-4-yl]oxy}-N-[(1-methylcyclopropyl)sulfonyl]-5,16-dioxo-1,2,3,6,7,8,9,10,11,13a,14,15,16,16a-tetradecahydrocyclopropa[e]pyrrolo[1,2-a][1,4]diazacyclopentadecine-14a(5H)-carboxamide]
- EC50 [1]: 1.6 nM
- EC50 [2]: 3 nM

Structure (SMILES): Cc1c(O)ccc2c(O[C@@H]3C[C@H]4C(=O)N[C@]5(C(=O)NS(=O)(=O)C6(C)CC6)C[C@H]5/C=C\CCCCC[C@H](NC(=O)N(C)C)C(=O)N4C3)cc(OC(C)C)nc12 [Compound 2022, (2R,6S,12Z,13aS,14aR,16aS)-6-[(dimethylcarbamoyl)amino]-2-{[7-hydroxy-8-methyl-2-(propan-2-yloxy)quinolin-4-yl]oxy}-N-[(1-methylcyclopropyl)sulfonyl]-5,16-dioxo-1,2,3,6,7,8,9,10,11,13a,14,15,16,16a-tetradecahydrocyclopropa[e]pyrrolo[1,2-a][1,4]diazacyclopentadecine-14a(5H)-carboxamide]
- EC50 [1]: 1.8 nM
- EC50 [2]: 4.9 nM

Structure (SMILES): COc1ccc2c(O[C@@H]3C[C@H]4C(=O)N[C@]5(C(=O)NS(=O)(=O)C6(C)CC6)C[C@H]5/C=C\CCCCC[C@H](NC(=O)N5CCC5)C(=O)N4C3)cc(OC3CC3)nc2c1C [Compound 2010, (2R,6S,12Z,13aS,14aR,16aS)-6-[(azetidin-1-ylcarbonyl)amino]-2-{[2-(cyclopropyloxy)-7-methoxy-8-methylquinolin-4-yl]oxy}-N-[(1-methylcyclopropyl)sulfonyl]-5,16-dioxo-1,2,3,6,7,8,9,10,11,13a,14,15,16,16a-tetradecahydrocyclopropa[e]pyrrolo[1,2-a][1,4]diazacyclopentadecine-14a(5H)-carboxamide]
- EC50 [1]: 0.66 nM
- EC50 [2]: 6.4 nM

Structure (SMILES): COc1ccc2c(O[C@@H]3C[C@H]4C(=O)N[C@]5(C(=O)NS(=O)(=O)C6(C)CC6)C[C@H]5/C=C\CCCCC[C@H](NC(=O)c5ccn(C)n5)C(=O)N4C3)cc(OC(C)C)nc2c1OC [Compound 1005, (2R,6S,12Z,13aS,14aR,16aS)-2-{[7,8-dimethoxy-2-(propan-2-yloxy)quinolin-4-yl]oxy}-N-[(1-methylcyclopropyl)sulfonyl]-6-{[(1-methyl-1H-pyrazol-3-yl)carbonyl]amino}-5,16-dioxo-1,2,3,6,7,8,9,10,11,13a,14,15,16,16a-tetradecahydrocyclopropa[e]pyrrolo[1,2-a][1,4]diazacyclopentadecine-14a(5H)-carboxamide]
- EC50 [1]: 2 nM
- EC50 [2]: 2.5 nM

Structure (SMILES): COc1ccc2c(O[C@@H]3C[C@H]4C(=O)N[C@]5(C(=O)NS(=O)(=O)C6(C)CC6)C[C@H]5/C=C\CCCCC[C@H](NC(=O)c5ccn(CC(F)(F)F)n5)C(=O)N4C3)cc(OC3CCC3)nc2c1C [Compound 1023, (2R,6S,12Z,13aS,14aR,16aS)-2-{[2-(cyclobutyloxy)-7-methoxy-8-methylquinolin-4-yl]oxy}-N-[(1-methylcyclopropyl)sulfonyl]-5,16-dioxo-6-({[1-(2,2,2-trifluoroethyl)-1H-pyrazol-3-yl]carbonyl}amino)-1,2,3,6,7,8,9,10,11,13a,14,15,16,16a-tetradecahydrocyclopropa[e]pyrrolo[1,2-a][1,4]diazacyclopentadecine-14a(5H)-carboxamide]
- EC50 [1]: 0.25 nM
- EC50 [2]: 8.2 nM
